# Reference: US5620973A, “Tetracyclic condensed heterocyclic compounds and their use” (priority 1993, dated 1997)
# Where a name gives a salt, the structure may show the parent alone. Read-outs that look alike come from different tables or passages of the source.
# Key:
# [1] = cited from earlier work; for anti-senile dementia activity: Int. J. Clin. Pharmacol. Ther. Toxicol. 29, 23-37, 1991
# Acetylcholinesterase = molecular target: T1, Acetylcholinesterase (Rattus norvegicus, UniProt P37136); test: biochemical; design: species or system male Wistar rat
# T1 construct: using the S1 fraction of a male Wistar rat cerebral cortex homogenate as a source of cholinesterase; from tissue; host or cells: male Wistar rat cerebral cortex homogenate, S1 fraction
# Protocol: The cholinesterase inhibitory activity of the compound of this invention was evaluated using (acetyl[[^3 H])-acetylcholine. Thus, using the S1 fraction of a male Wistar rat cerebral cortex homogenate as a source of cholinesterase, (acetyl[^3 H])-acetylcholine as a substrate, and the compound of this invention as a test substance, the system was incubated for 30 minutes. The reaction was then stopped and a toluenic scincillator was added. After shaking, [^3 H]-acetic acid produced and transferred into the toluene layer was counted with a liquid scincillation counter to estimate the cholinesterase inhibitory activity of the test substance.
# [2] = system: serotonin (5-HT) reuptake; test: monoamine reuptake inhibitory activity, [^3 H]-serotonin (5-HT); assay type: biochemical, male JCl: Wistar rats; settings: [^3 H]-5-HT 10 nM; P2 pellet of rat cerebral cortex and hippocampus; 37° C., 5 minutes; read-out: Monoamine uptake inhibitory activity IC50, 5-HT
# Protocol: (§1) The monoamine reuptake inhibitory activity of the compound of this invention was evaluated using [^3 H]-norepinephrine (NE) and [^3 H]-serotonin(5-HT).
# (§2) Thus, the brain was enuleated from male JCl: Wistar rats (aged 9-13 weeks) and the cerebral cortex and the hippocampus were isolated. The tissue was homogenized (Potter, 5 strokes) with about 10-15 volumes of ice-cooled 0.32M sucrose and centrifuged at 1.000×g for 10 minutes. The supernatant was further centrifuged at 20,000×g for 20 minutes to provide a pellet (P2). This pellet was suspended in Krebs-Ringer bicarbonate solution (KRB) (KRB: 116 mM NaCl, 4.8 mM KCl, 1.3 mM CaCl2, 1,2 mM MgSO4, 1,2 mM NaH2 PO4, 25 mM NaHCO3, 0.1 mM EDTA-2Na, 11.1 mM D-glucose, 0.11 mM L-ascorbic acid, 0.01 mM pargyline-HCl; 95% O2 /5% CO2) and aliquots of the suspension were used for assays.
# (§3) The test compound (10 μl as dissolved in DMSO at 100 times the final concentration) was mixed with 900 μl of the P2 suspension and the mixture was preincubated at 37° C. for 5 minutes. Then, 100 μl of [^3 H]-NE (final concentration 11 nM) or [^3 H]-5-HT (final concentration 10 nM) was added and the mixture was incubated at 37° C. for 5 minutes. […] The filter was transferred to a minature vial, 4 ml of scintillator was added, and the radioactivity was counted with a liquid scintillation counter. […]
# [3] = system: norepinephrine (NE) reuptake; test: monoamine reuptake inhibitory activity, [^3 H]-norepinephrine (NE); assay type: biochemical, male JCl: Wistar rats; settings: [^3 H]-NE 11 nM; P2 pellet of rat cerebral cortex and hippocampus; 37° C., 5 minutes; read-out: Monoamine uptake inhibitory activity IC50, NE
# Protocol: as §1, §2, §3
# [4] = S1 fraction of male Wistar rat cerebral cortex homogenate, 30 minutes incubation, read-out: Acetylcholinesterase inhibitory activity IC50
# T1 sequence (P37136 32-614): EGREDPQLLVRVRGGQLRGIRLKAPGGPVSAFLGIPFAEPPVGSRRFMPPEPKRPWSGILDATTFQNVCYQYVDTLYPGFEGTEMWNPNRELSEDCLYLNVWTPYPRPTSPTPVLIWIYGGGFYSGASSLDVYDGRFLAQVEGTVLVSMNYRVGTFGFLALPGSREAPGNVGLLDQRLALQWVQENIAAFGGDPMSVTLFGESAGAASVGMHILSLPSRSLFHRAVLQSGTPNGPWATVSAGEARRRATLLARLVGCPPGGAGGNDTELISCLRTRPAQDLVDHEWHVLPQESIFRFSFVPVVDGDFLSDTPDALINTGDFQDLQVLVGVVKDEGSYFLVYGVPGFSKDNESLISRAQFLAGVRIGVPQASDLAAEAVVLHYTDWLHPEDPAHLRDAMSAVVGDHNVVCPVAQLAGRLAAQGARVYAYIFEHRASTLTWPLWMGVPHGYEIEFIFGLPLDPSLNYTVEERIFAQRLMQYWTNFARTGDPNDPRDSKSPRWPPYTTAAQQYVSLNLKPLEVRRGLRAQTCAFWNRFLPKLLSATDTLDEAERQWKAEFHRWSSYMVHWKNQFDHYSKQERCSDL
compound,measurement,setting,value
"CNC(=O)Oc1ccc2c(c1)[C@]1(C)CCN(C)[C@@H]1N2C (stereo in doubt) [Physostigmine, physostigmine]",anti-senile dementia activity,[1],have been found to have anti-senile dementia activity
same,duration of action,[1]; background,short duration of action
same,toxic potential,[1]; background,high toxic potential
"O=C(CCN1CCN(Cc2ccccc2)CC1)c1cc2c3c(c1)C1CCCCC1N3C(=O)CC2 (stereo not drawn) [Example 1, 5-[3-[4-(Phenylmethyl)-1-piperazinyl]-1-oxopropyl]-2,3,6b,7,8,9,10,10a-octahydro-1H-pyrido[3,2,1-jk]carbazol-6-one dihydrochloride]",IC50,Acetylcholinesterase; [4],77.5 nM
O=C(CCN1CCN(Cc2ccccc2)CC1)c1ccc2c(c1)CN1C(=O)c3ccccc3C1CC2 (stereo not drawn) [Example 2-1],IC50,Acetylcholinesterase; [4],16.4 nM
same,IC50,[2],70 nM
same,IC50,[3],1040 nM
"O=C(CCC1CCN(Cc2ccccc2)CC1)c1ccc2c(c1)CN1C(=O)c3ccccc3C1CC2 (stereo not drawn) [Example 4, 3-[3-[1-(Phenylmethyl)-4-piperidinyl]-1-oxopropyl]-7,11b,12,13-tetrahydro-5H-isoindolo[2,1-b][2]benzazepin-7-one hydrochloride]",IC50,Acetylcholinesterase,2.4 nM
O=C(CCN1CCN(Cc2cccc(Cl)c2)CC1)c1ccc2c(c1)CN1C(=O)c3ccccc3C1CC2 (stereo not drawn) [Example 6-2],IC50,Acetylcholinesterase; [4],65.5 nM
O=C(CCN1CCN(Cc2cccc(F)c2)CC1)c1ccc2c(c1)CN1C(=O)c3ccccc3C1CC2 (stereo not drawn) [Example 6-3],IC50,Acetylcholinesterase; [4],17.4 nM
"O=C(CCC1CCN(Cc2ccccc2)CC1)c1cc2c3c(c1)C1CCCCC1N3C(=O)CC2 (stereo not drawn) [Example 7, 5-[3-[1-(Phenylmethyl)-4-piperidinyl]1-oxopropyl]-2,3,6b, 7,8,9,10,10a-octahydro-1H-pyrido[3,2,1-jk]carbazol-6-one fumarate]",IC50,Acetylcholinesterase,7.93 nM
"CN(C)CCCN1c2ccccc2CCc2ccccc21 [Imipramine, imipramine, reference compound]",IC50,[2],63 nM
same,IC50,[3],1120 nM
"Nc1c2c(nc3ccccc13)CCCC2 [THA, tacrine]",anti-senile dementia activity,[1],have been found to have anti-senile dementia activity
same,hepatic impairment,[1]; background,severe hepatic impairment is often associated
